Test results: ChEMBL document CHEMBL3871299, “Design and synthesis of new piperidone grafted acetylcholinesterase inhibitors” (Bioorg Med Chem Lett, 2017)

Columns and labels:
[1] = molecular target: T1, Acetylcholinesterase (Homo sapiens, UniProt P22303); test: Inhibition of acetylcholinesterase (unknown origin) assessed as reduction in formation of 5-thio-2-nitrobenzoate from acetylthiocholine iodide preincubated for 15 mins followed by substrate addition measured after 30 mins by Ellman's method
T1 sequence (P22303 whole entry): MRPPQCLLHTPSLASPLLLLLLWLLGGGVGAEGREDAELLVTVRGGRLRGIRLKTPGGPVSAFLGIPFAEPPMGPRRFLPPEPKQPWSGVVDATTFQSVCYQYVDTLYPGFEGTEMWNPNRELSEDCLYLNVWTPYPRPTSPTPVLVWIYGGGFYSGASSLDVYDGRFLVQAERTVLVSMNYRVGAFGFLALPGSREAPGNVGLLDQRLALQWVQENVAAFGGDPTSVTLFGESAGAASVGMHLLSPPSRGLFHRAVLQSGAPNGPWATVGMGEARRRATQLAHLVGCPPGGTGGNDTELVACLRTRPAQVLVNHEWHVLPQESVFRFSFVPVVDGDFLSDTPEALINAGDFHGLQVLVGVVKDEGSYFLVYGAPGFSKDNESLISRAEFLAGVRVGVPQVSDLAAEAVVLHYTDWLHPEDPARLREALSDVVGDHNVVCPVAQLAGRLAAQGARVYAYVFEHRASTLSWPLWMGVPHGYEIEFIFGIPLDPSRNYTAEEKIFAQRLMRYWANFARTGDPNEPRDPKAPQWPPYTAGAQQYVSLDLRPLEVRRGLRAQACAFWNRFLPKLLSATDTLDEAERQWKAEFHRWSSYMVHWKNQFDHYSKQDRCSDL

[2] = molecular target: T1, Acetylcholinesterase; test: Inhibition of acetylcholinesterase (unknown origin) assessed as reduction in formation of 5-thio-2-nitrobenzoate from acetylthiocholine iodide at 5 ug/ml preincubated for 15 mins followed by substrate addition measured after 30 mins by Ellman's method
[3] = Cytotoxicity against human SH-SY5Y cells assessed as reduction in cell viability at 0.2 to 40 uM measured after 24 hrs by MTT assay; format: toxicity, cell-based

Q: For `O=C1/C(=C/c2ccccc2)CN(Cc2ccc3ccccc3c2)C/C1=C\c1ccccc1`, which IC50 [1] is on record?
A: Its IC50 is 1930 nM.

Q: What about the inhibition [2] of the same molecule?
A: Its inhibition is 67.9%.

Q: What does the source list for `Brc1ccc(C=C2CNCC3=C2N=C2SC=C(c4ccccc4)N2C3c2ccc(Br)cc2)cc1` (configuration not stated)?
A: IC50 [1]: 1480 nM; inhibition [2]: 66.7%

Q: With `Cc1ccc(/C=C2\CN(Cc3ccc4ccccc4c3)C/C(=C\c3ccc(C)cc3)C2=O)cc1` as the molecule, how does the IC50 [1] read?
A: The IC50 was 1590 nM.

Q: And the inhibition [2]?
A: The inhibition was 72.6%.

Q: Which results are given for `O=C1/C(=C/c2ccc(Br)cc2)CN(Cc2ccc3ccccc3c2)C/C1=C\c1ccc(Br)cc1`?
A: IC50 [1]: 830 nM; inhibition [2]: 67.2%; Activity [3]: Non-Toxic

Q: Which inhibition [2] does the source give for `Clc1ccc(C=C2CNCC3=C2N=C2SC=C(c4ccccc4)N2C3c2ccc(Cl)cc2)cc1` (configuration not stated) here?
A: Its inhibition is 41.6%.

Q: Which results are given for `Brc1ccc(C=C2CNCC3=C2N=C2SC=C(c4ccc5ccccc5c4)N2C3c2ccc(Br)cc2)cc1` (configuration not stated)?
A: IC50 [1]: 730 nM; inhibition [2]: 65.7%; Activity [3]: Non-Toxic

Q: Which inhibition [2] does the source give for `Cc1ccc(C=C2CNCC3=C2N=C2SC=C(c4ccccc4)N2C3c2ccc(C)cc2)cc1` (configuration not stated) here?
A: The inhibition was 45.7%.

Q: Which IC50 [1] does the source give for `Cc1cccc(CN2C/C(=C\c3ccccc3)C(=O)/C(=C/c3ccccc3)C2)c1` here?
A: Its IC50 is 3180 nM.

Q: What about the inhibition [2] of the same molecule?
A: The inhibition was 63.1%.

Q: With `Cc1ccc(/C=C2\CN(Cc3cccc(C)c3)C/C(=C\c3ccc(C)cc3)C2=O)cc1` as the molecule, how does the IC50 [1] read?
A: The IC50 was 3220 nM.

Q: What about the inhibition [2] of the same molecule?
A: Its inhibition is 59.8%.

Q: With `Cc1ccc(C=C2CNCC3=C2N=C2SC=C(c4ccc(Br)cc4)N2C3c2ccc(C)cc2)cc1` (configuration not stated) as the molecule, how does the IC50 [1] read?
A: The IC50 was 2270 nM.

Q: What about the inhibition [2] of the same molecule?
A: The inhibition was 64.6%.

Q: For `O=C1/C(=C/c2ccc(Cl)cc2)CN(Cc2ccc3ccccc3c2)C/C1=C\c1ccc(Cl)cc1`, which inhibition [2] is on record?
A: The inhibition was 42.4%.

Q: Which IC50 [1] does the source give for `Cc1ccc(C2=CSC3=NC4=C(CNCC4=Cc4ccc(Br)cc4)C(c4ccc(Br)cc4)N23)cc1` (configuration not stated) here?
A: The IC50 was 1010 nM.

Q: And the inhibition [2]?
A: Its inhibition is 68.3%.

Q: What about the Activity [3] of the same molecule?
A: The Activity was “Non-Toxic”.

Q: With `Cc1cccc(CN2C/C(=C\c3ccc(Br)cc3)C(=O)/C(=C/c3ccc(Br)cc3)C2)c1` as the molecule, how does the inhibition [2] read?
A: The inhibition was 45.7%.

Q: With `Cc1cccc(CN2C/C(=C\c3ccc(Cl)cc3)C(=O)/C(=C/c3ccc(Cl)cc3)C2)c1` as the molecule, how does the inhibition [2] read?
A: The inhibition was 41.6%.

Q: Which IC50 [1] does the source give for `Cc1ccc(C=C2CNCC3=C2N=C2SC=C(c4ccc5ccccc5c4)N2C3c2ccc(C)cc2)cc1` (configuration not stated) here?
A: The IC50 was 980 nM.

Q: What about the inhibition [2] of the same molecule?
A: Its inhibition is 69.6%.

Q: And the Activity [3]?
A: Its Activity is “Non-Toxic”.

Q: Which inhibition [2] does the source give for `Cc1ccc(C2=CSC3=NC4=C(CNCC4=Cc4ccccc4)C(c4ccccc4)N23)cc1` (configuration not stated) here?
A: Its inhibition is 42.1%.

Q: For `C(=C1CNCC2=C1N=C1SC=C(c3ccccc3)N1C2c1ccccc1)c1ccccc1` (configuration not stated), which inhibition [2] is on record?
A: Its inhibition is 48.6%.

Q: Which IC50 [1] does the source give for `Clc1ccc(C=C2CNCC3=C2N=C2SC=C(c4ccc5ccccc5c4)N2C3c2ccc(Cl)cc2)cc1` (configuration not stated) here?
A: Its IC50 is 1350 nM.

Q: And the inhibition [2]?
A: Its inhibition is 62.8%.

Q: For `Cc1ccc(C2=CSC3=NC4=C(CNCC4=Cc4ccc(Cl)cc4)C(c4ccc(Cl)cc4)N23)cc1` (configuration not stated), which IC50 [1] is on record?
A: The IC50 was 1090 nM.

Q: And the inhibition [2]?
A: The inhibition was 74.7%.

Q: And the Activity [3]?
A: Its Activity is “Non-Toxic”.

Q: For `Brc1ccc(C2=CSC3=NC4=C(CNCC4=Cc4ccccc4)C(c4ccccc4)N23)cc1` (configuration not stated), which inhibition [2] is on record?
A: The inhibition was 48.7%.

Q: For `Cc1ccc(C=C2CNCC3=C2N=C2SC=C(c4ccc(C)cc4)N2C3c2ccc(C)cc2)cc1` (configuration not stated), which IC50 [1] is on record?
A: The IC50 was 1800 nM.

Q: And the inhibition [2]?
A: Its inhibition is 60.4%.

Q: Which inhibition [2] does the source give for `C(=C1CNCC2=C1N=C1SC=C(c3ccc4ccccc4c3)N1C2c1ccccc1)c1ccccc1` (configuration not stated) here?
A: The inhibition was 41.8%.

Q: With `Brc1ccc(C=C2CNCC3=C2N=C2SC=C(c4ccc(Br)cc4)N2C3c2ccc(Br)cc2)cc1` (configuration not stated) as the molecule, how does the inhibition [2] read?
A: Its inhibition is 48.3%.

Q: For `Clc1ccc(C=C2CNCC3=C2N=C2SC=C(c4ccc(Br)cc4)N2C3c2ccc(Cl)cc2)cc1` (configuration not stated), which inhibition [2] is on record?
A: Its inhibition is 41.6%.
